The target in one assay is 5-HT6 receptor (Homo sapiens, UniProt P50406). Description: Radio-ligand binding assay 5-HT6. Conditions: 10 μM compound; [3H] LSD 1.5 nM; human rec. HEK293 cells. The protocol: (§1) Determination of binding affinities for various 5-HT receptors was performed by radio-ligand binding assays. Briefly, tissue or cells expressing the receptor of interest were suspended in incubation buffer and radio-ligands and 10 μM N-(2-chloro-3,4-dimethoxybenzylidene-amino)guanidine were added. After incubation, separation of bound and free radio-ligand was done by multiple washings with buffer.
(§2) The results were presented as the percent inhibition of specific binding. The IC50 values were determined by a non-linear least square regression analysis using MathIQ™ (ID Business Solution Ltd., UK). The inhibition constants (Ki) were calculated using the equation of Cheng and Prusoff (Cheng Y, Prusoff W H, Biochem. Pharmacol. 22:3099-3108, 1973) using the observed IC50 of the tested compound, the concentration of radioligand employed in the assay and the historical values for the KD of the ligand.

In another assay the target is T1, 5-HT2C receptor (Homo sapiens, UniProt P28335).
T1 sequence (P28335 33-458): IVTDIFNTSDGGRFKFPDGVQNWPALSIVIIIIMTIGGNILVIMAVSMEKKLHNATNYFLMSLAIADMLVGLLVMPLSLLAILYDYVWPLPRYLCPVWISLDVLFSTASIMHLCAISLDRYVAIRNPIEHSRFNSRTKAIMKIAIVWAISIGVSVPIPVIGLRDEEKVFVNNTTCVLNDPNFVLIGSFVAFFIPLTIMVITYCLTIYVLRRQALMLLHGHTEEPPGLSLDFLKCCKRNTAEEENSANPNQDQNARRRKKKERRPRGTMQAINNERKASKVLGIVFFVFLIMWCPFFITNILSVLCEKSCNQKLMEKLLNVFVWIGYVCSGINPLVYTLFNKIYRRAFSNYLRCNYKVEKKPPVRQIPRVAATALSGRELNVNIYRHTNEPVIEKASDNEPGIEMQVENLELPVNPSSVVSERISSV
Description: 5-HT2C GTPγS binding assay (functionality). The class given is biochemical. Conditions: FIG. 2, read-out: IC50, antagonistic effect on 5-HT2C. The protocol: FIG. 2. Antagonistic effect of N-(2-chloro-3,4-dimethoxybenzylideneamino)guanidine on 5-HT2B and 5-HT2C receptors. The functionality of the compound was evaluated with the 5-HT2B tissue assay and the 5-HT2C GTPγS binding assay methods.
(§3) N-(2-chloro-3,4-dimethoxybenzylideneamino)guanidine was further tested for functionality against 5-HT2B (Cohen et al. (1987), J. Pharmacol. Exp. Ther. 243:264-269), 5-HT2C (Adlersber M, et al. (2000), J. Neurosci. Res. 61(6):674-685; Cussac D. et al. (2002), Mol. Pharmacol. 62(3):578-589) and 5-HT4 (Reeves et al. (1991), Br. J. Pharmacol. 103:1067-1072).
On the technique in general: GTPγS is a poorly hydrolysed GTP analogue; its binding reports G protein activation.

The test system of assay [1] is antigen-induced arthritis. Description: Antigen-induced arthritis (AIA) in the rat, knee-joint swelling. It counts as in vivo. An excerpt:
Antigen-Induced Arthritis (AIA) is a Well-Documented Animal Experimental Model of human arthritic disease (Dumonde, D. C. and Glynn, L. E. (1962), Br. J. Exp. Pathol. 43:373-383). In this model, inflammation is induced by immunization followed by an intra-articular (knee-joint) challenge with the antigen. This causes an increase in knee diameter due to the formation of a pannus, i.e. hyperproliferative synovial tissue, which spreads over the articular cartilage into the bone, leading to erosion and destruction of the joint tissue (Carpenter, T. A. et al. (1994), Skeletal Radiol. 23:429-437).
AIA was applied for a short-term in vivo evaluation of our test compounds, with treatment during 4 days.
Female Dark Agouti rats were sensitized subcutaneously at the tail root with 1 mg mBSA (Sigma A1009) dissolved in 50 μl saline and emulsified in 50 μl Freund's complete adjuvant (Sigma F5881). Eleven days later the rats were challenged (unilateral) with an intra-articular (i.a.) injection of 75 μg mBSA dissolved in 50 μl saline. The procedures were carried out under a brief Isoflurane anaesthesia. Animals were treated once or twice daily with oral administration of N-(2-chloro-3,4-dimethoxybenzylideneamino)guanidine in saline. […] The knee-joint swelling was measured daily with an odimeter/calliper; the body weight was recorded before arthritis induction and at the end of the experiment. […]

In a further assay the target is 5-HT4 receptor (Rattus norvegicus, UniProt Q62758). Description: 5-HT4 functionality test. Conditions: at 100 μM.
Text: as §3

The target of the next assay is T2, 5-HT1A receptor (Homo sapiens, UniProt P08908).
T2 sequence (P08908 1-422): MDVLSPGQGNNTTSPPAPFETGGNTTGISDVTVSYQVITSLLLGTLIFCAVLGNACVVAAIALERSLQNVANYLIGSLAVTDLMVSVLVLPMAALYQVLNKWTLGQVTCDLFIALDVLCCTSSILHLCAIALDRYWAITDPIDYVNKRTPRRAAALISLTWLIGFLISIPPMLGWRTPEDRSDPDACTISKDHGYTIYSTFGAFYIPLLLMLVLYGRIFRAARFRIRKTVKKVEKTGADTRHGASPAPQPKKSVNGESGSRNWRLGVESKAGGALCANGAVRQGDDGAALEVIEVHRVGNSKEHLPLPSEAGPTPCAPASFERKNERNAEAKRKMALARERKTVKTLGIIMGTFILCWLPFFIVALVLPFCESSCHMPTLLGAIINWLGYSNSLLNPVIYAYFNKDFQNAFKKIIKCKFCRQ
Description: Radio-ligand binding assay 5-HT1A. As to conditions: 10 μM compound; [3H]-8-OH-DPAT 0.5 nM; human rec. HEK293 cells. The protocol:
as §1, §2

As usually defined, the inhibition is how much of the control response was suppressed. The low end stands for little suppression, the high end for strong suppression. One may read the IC50 as the midpoint of a concentration-inhibition curve.

Sequence of 5-HT4 receptor (Q62758 whole entry): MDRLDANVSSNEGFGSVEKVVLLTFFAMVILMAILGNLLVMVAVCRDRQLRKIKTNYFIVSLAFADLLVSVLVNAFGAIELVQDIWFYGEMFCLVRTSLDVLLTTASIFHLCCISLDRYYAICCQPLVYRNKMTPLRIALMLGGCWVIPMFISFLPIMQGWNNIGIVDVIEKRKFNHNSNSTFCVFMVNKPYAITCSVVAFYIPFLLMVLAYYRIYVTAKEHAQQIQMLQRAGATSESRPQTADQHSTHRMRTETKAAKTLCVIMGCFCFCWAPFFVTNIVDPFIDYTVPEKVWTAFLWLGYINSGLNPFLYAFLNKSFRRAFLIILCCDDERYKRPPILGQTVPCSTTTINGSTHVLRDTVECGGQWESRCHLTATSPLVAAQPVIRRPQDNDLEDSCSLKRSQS
Sequence of 5-HT6 receptor (P50406 whole entry): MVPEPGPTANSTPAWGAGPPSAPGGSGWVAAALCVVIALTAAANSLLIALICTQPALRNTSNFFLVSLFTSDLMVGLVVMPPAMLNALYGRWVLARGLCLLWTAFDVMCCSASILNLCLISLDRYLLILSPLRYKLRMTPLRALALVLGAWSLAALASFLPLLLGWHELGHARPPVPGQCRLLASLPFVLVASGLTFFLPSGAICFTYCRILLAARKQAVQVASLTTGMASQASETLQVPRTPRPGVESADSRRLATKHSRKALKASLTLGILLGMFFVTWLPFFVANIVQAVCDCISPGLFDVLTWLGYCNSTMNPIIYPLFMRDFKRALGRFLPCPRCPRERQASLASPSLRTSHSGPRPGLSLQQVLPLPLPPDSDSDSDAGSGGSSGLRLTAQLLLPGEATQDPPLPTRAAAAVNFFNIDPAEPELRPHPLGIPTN

In the case of `COc1ccc(C=NNC(=N)N)c(Cl)c1OC` [N-(2-chloro-3,4-dimethoxybenzylideneamino)guanidine], the figures for the inhibition at 10 µM at 5-HT6 receptor and at 5-HT1A receptor were 2.6% and 17%, respectively. Also, the IC50 on 5-HT2C receptor stood at 16.5 µM. Moreover, in assay [1] (administration started one day after disease induction), the “effect in AIA at administration one day after disease induction” value is on record as “therapeutic effect”. Moreover, the “knee-joint swelling in AIA” value in assay [1] (oral, 1-10 mg/kg once or twice daily for 4 days from day of challenge, FIG. 5) is “reproducibly reduce joint swelling”. For the same molecule, the “effect on 5-HT4 (functionality)” value at 5-HT4 receptor is recorded as “no significant effect”.
